Where “and” joins values, the source holds several entries; their conditions need not be identical. Identical values can stand only once. Toxic doses and inconclusive results are not listed. Rule as the data show it: active = T/C of 150% or more; inactive = T/C below 125%.
System: L1210 leukemia ip in BDF1 mice, survival T/C
Test: NCI In Vivo Anticancer Drug Screen. Data for tumor model L1210 Leukemia (intraperitoneal) in B6D2F1 (BDF1) mice
Conditions: higher = longer survival
How it was run: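 Read-out is survival time, reported as the treated-group measurement over the vehicle-control measurement.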

[1] = endpoint: mean survival time, dose: 100.0 mg/kg/injection, schedule: Q01DX009 (ip), vehicle: saline with Tween-80
[2] = endpoint: mean survival time, dose: 200.0 mg/kg/injection, schedule: Q01DX009 (ip), vehicle: saline with Tween-80
[3] = endpoint: mean survival time, dose: 400.0 mg/kg/injection, schedule: Q01DX009 (ip), vehicle: saline with Tween-80
[4] = endpoint: mean survival time, dose: 100.0 mg/kg/injection, schedule: Q04DX002 (ip), vehicle: Klucel (hydroxypropylcellulose) (HPC)
[5] = endpoint: mean survival time, dose: 200.0 mg/kg/injection, schedule: Q04DX002 (ip), vehicle: Klucel (hydroxypropylcellulose) (HPC)
[6] = endpoint: mean survival time, dose: 400.0 mg/kg/injection, schedule: Q04DX002 (ip), vehicle: Klucel (hydroxypropylcellulose) (HPC)
[7] = endpoint: mean survival time, dose: 25.0 mg/kg/injection, schedule: Q04DX003 (ip), vehicle: saline
[8] = endpoint: mean survival time, dose: 50.0 mg/kg/injection, schedule: Q04DX003 (ip), vehicle: saline
[9] = endpoint: mean survival time, dose: 100.0 mg/kg/injection, schedule: Q04DX003 (ip), vehicle: saline
[10] = endpoint: mean survival time, dose: 100.0 mg/kg/injection, schedule: Q04DX003 (ip), vehicle: Klucel (hydroxypropylcellulose) (HPC)
[11] = endpoint: mean survival time, dose: 100.0 mg/kg/injection, schedule: Q01DX009 (ip), vehicle: Klucel (hydroxypropylcellulose) (HPC)
[12] = endpoint: mean survival time, dose: 200.0 mg/kg/injection, schedule: Q01DX009 (ip), vehicle: Klucel (hydroxypropylcellulose) (HPC)
[13] = endpoint: mean survival time, dose: 200.0 mg/kg/injection, schedule: Q04DX003 (ip), vehicle: Klucel (hydroxypropylcellulose) (HPC)
[14] = endpoint: mean survival time, dose: 400.0 mg/kg/injection, schedule: Q04DX003 (ip), vehicle: Klucel (hydroxypropylcellulose) (HPC)

Measured: T/C

CCOc1ccn(CC(=O)c2ccc(Cl)s2)c(=O)n1
inactive: [1] 93 % of control | endpoint: mean survival time, dose: 100.0 mg/kg/injection, schedule: Q04DX003 (ip), vehicle: saline with Tween-80 100 % of control | [2] 90 % of control | endpoint: mean survival time, dose: 200.0 mg/kg/injection, schedule: Q04DX003 (ip), vehicle: saline with Tween-80 100 % of control | [3] 86 % of control | endpoint: mean survival time, dose: 400.0 mg/kg/injection, schedule: Q04DX003 (ip), vehicle: saline with Tween-80 101 % of control

O=C(Oc1ccccc1)Oc1ccccc1
inactive: [4] 96 % of control | [5] 96 % of control | [6] 96 % of control

O=[N+]([O-])c1ccc(Oc2c(Cl)c(Cl)c(Cl)c(Cl)c2Cl)c([N+](=O)[O-])c1
inactive: endpoint: mean survival time, dose: 222.0 mg/kg/injection, schedule: Q01DX Z (ip), vehicle: methylcellulose (MC) 95 % of control | endpoint: mean survival time, dose: 333.0 mg/kg/injection, schedule: Q01DX Z (ip), vehicle: methylcellulose (MC) 94 % of control | endpoint: mean survival time, dose: 500.0 mg/kg/injection, schedule: Q01DX Z (ip), vehicle: methylcellulose (MC) 93 % of control

CC(=O)ON1CCC=NC1
inactive: endpoint: mean survival time, dose: 50.0 mg/kg/injection, schedule: Q04DX002 (ip), vehicle: saline 102 % of control | endpoint: mean survival time, dose: 100.0 mg/kg/injection, schedule: Q04DX002 (ip), vehicle: saline 91 % of control | endpoint: mean survival time, dose: 200.0 mg/kg/injection, schedule: Q04DX002 (ip), vehicle: saline 91 % of control | endpoint: mean survival time, dose: 400.0 mg/kg/injection, schedule: Q04DX002 (ip), vehicle: saline 109 % of control

C[Se](=O)O.[Pb]
inactive: endpoint: mean survival time, dose: 3.13 mg/kg/injection, schedule: Q01DX001 (ip), vehicle: saline with Tween-80 98 % of control | endpoint: mean survival time, dose: 6.25 mg/kg/injection, schedule: Q01DX001 (ip), vehicle: saline with Tween-80 98 % of control | endpoint: mean survival time, dose: 12.5 mg/kg/injection, schedule: Q01DX001 (ip), vehicle: saline with Tween-80 88 % of control

COc1ccc(C(O)(c2ccccc2)C(O)c2ccccc2)cc1 (stereo not given)
inactive: [1] 98 % of control | [2] 88 % of control | [3] 86 % of control

O=C(CC(=O)C(F)(F)F)c1cccs1.O=C(CC(=O)C(F)(F)F)c1cccs1.O=C(CC(=O)C(F)(F)F)c1cccs1.[Cr]
inactive: endpoint: mean survival time, dose: 100.0 mg/kg/injection, schedule: Q01DX001 (ip), vehicle: other 91 % of control | endpoint: mean survival time, dose: 100.0 mg/kg/injection, schedule: Q04DX003 (ip), vehicle: other 97 % of control | endpoint: mean survival time, dose: 200.0 mg/kg/injection, schedule: Q01DX001 (ip), vehicle: other 94 % of control | endpoint: mean survival time, dose: 200.0 mg/kg/injection, schedule: Q04DX003 (ip), vehicle: other 103 % of control | endpoint: mean survival time, dose: 400.0 mg/kg/injection, schedule: Q01DX001 (ip), vehicle: other 96 % of control | endpoint: mean survival time, dose: 400.0 mg/kg/injection, schedule: Q04DX003 (ip), vehicle: other 94 % of control

COc1ccccc1OC(=O)Nc1cc([N+](=O)[O-])ccc1C
inactive: [1] 89 % of control | [2] 96 % of control | [3] 121 % of control

Cc1cc([N+](=O)[O-])cc(C)c1OC(=O)c1ccc(N=C(N)N)cc1
inactive: endpoint: mean survival time, dose: 3.12 mg/kg/injection, schedule: Q01DX009 (ip), vehicle: saline 94 % of control | endpoint: mean survival time, dose: 6.25 mg/kg/injection, schedule: Q01DX009 (ip), vehicle: saline 93 % of control | endpoint: mean survival time, dose: 12.5 mg/kg/injection, schedule: Q01DX009 (ip), vehicle: saline 103 % of control | endpoint: mean survival time, dose: 25.0 mg/kg/injection, schedule: Q01DX009 (ip), vehicle: saline 97 % of control and 107 % of control | [7] 111 % of control | endpoint: mean survival time, dose: 50.0 mg/kg/injection, schedule: Q01DX009 (ip), vehicle: saline 103 % of control and 92 % of control | [8] 105 % of control | [9] 100 % of control

CN(C)CC/C=C1\c2ccccc2CCSc2ccccc21
inactive: endpoint: mean survival time, dose: 25.0 mg/kg/injection, schedule: Q04DX003 (ip), vehicle: Klucel (hydroxypropylcellulose) (HPC) 100 % of control | endpoint: mean survival time, dose: 50.0 mg/kg/injection, schedule: Q04DX003 (ip), vehicle: Klucel (hydroxypropylcellulose) (HPC) 100 % of control | [10] 98 % of control

CC1CCC2(C)CCC3(C)C4=CCC5C(C)(C)C(O)CCC5(C)C4CCC3(C)C2C1C (stereo not given)
inactive: endpoint: mean survival time, dose: 200.0 mg/kg/injection, schedule: Q01DX009 (ip), vehicle: saline 87 % of control | endpoint: mean survival time, dose: 400.0 mg/kg/injection, schedule: Q01DX009 (ip), vehicle: saline 96 % of control

Cc1ccncc1C1CCCN1C (stereo not given)
inactive: [7] 94 % of control | [8] 102 % of control | [9] 94 % of control

O=CNc1ccc2ccccc2c1
inactive: endpoint: mean survival time, dose: 37.5 mg/kg/injection, schedule: Q04DX003 (ip), vehicle: Klucel (hydroxypropylcellulose) (HPC) 92 % of control | endpoint: mean survival time, dose: 75.0 mg/kg/injection, schedule: Q04DX003 (ip), vehicle: Klucel (hydroxypropylcellulose) (HPC) 97 % of control | endpoint: mean survival time, dose: 150.0 mg/kg/injection, schedule: Q04DX003 (ip), vehicle: Klucel (hydroxypropylcellulose) (HPC) 103 % of control

CCOC(=O)c1[nH]c(C)c(C(=O)OCC)c1C
inactive: endpoint: mean survival time, dose: 50.0 mg/kg/injection, schedule: Q01DX009 (ip), vehicle: Klucel (hydroxypropylcellulose) (HPC) 95 % of control | [11] 95 % of control | endpoint: mean survival time, dose: 100.0 mg/kg/injection, schedule: Q04DX002 (ip), vehicle: saline with Tween-80 99 % of control | [12] 103 % of control | endpoint: mean survival time, dose: 200.0 mg/kg/injection, schedule: Q04DX002 (ip), vehicle: saline with Tween-80 102 % of control | endpoint: mean survival time, dose: 400.0 mg/kg/injection, schedule: Q04DX002 (ip), vehicle: saline with Tween-80 102 % of control | endpoint: median survival time, dose: 10.0 mg/kg/injection, schedule: Q04DX002 (ip), vehicle: Klucel (hydroxypropylcellulose) (HPC) 100 % of control | endpoint: median survival time, dose: 200.0 mg/kg/injection, schedule: Q04DX002 (ip), vehicle: Klucel (hydroxypropylcellulose) (HPC) 89 % of control | endpoint: median survival time, dose: 400.0 mg/kg/injection, schedule: Q04DX002 (ip), vehicle: Klucel (hydroxypropylcellulose) (HPC) 107 % of control

CNC(=O)c1ccccc1C(O)(c1ccccc1)c1ccccc1
inactive: [11] 95 % of control | [10] 94 % of control | [12] 98 % of control | [13] 97 % of control | endpoint: mean survival time, dose: 400.0 mg/kg/injection, schedule: Q01DX009 (ip), vehicle: Klucel (hydroxypropylcellulose) (HPC) 101 % of control | [14] 90 % of control

C=CCCC1(CC=C)C(=O)NC(=O)NC1=O
inactive: endpoint: mean survival time, dose: 75.0 mg/kg/injection, schedule: Q01DX001 (ip), vehicle: saline 100 % of control | endpoint: mean survival time, dose: 150.0 mg/kg/injection, schedule: Q01DX001 (ip), vehicle: saline 104 % of control

CCCCCCCCCCCCCCCCCCOc1ccc(Sc2ccc([N+](=O)[O-])cc2)cc1
inactive: [10] 87 % of control | [13] 88 % of control | [14] 88 % of control

O=C1/C(=C/c2ccccc2[N+](=O)[O-])CCc2ccccc21
inactive: endpoint: mean survival time, dose: 100.0 mg/kg/injection, schedule: Q04DX003 (ip), vehicle: acetone 96 % of control | endpoint: mean survival time, dose: 200.0 mg/kg/injection, schedule: Q04DX003 (ip), vehicle: acetone 106 % of control | endpoint: mean survival time, dose: 400.0 mg/kg/injection, schedule: Q04DX003 (ip), vehicle: acetone 95 % of control

CN(Cc1cnc(N)nc1N)c1ccc(C(=O)O)cc1
inactive: endpoint: mean survival time, dose: 100.0 mg/kg/injection, schedule: Q01DX001 (ip), vehicle: carboxymethylcellulose (CMC) 90 % of control | endpoint: mean survival time, dose: 400.0 mg/kg/injection, schedule: Q01DX001 (ip), vehicle: carboxymethylcellulose (CMC) 92 % of control

O=C1CC(C(Cl)(Cl)Cl)O1 (stereo not given)
inactive: [4] 89 % of control | [5] 92 % of control | [6] 106 % of control

O=C(CCCC(=O)N/N=C/c1cc(Br)cc(Br)c1)N/N=C\c1cc(Br)cc(Br)c1
inactive: endpoint: mean survival time, dose: 50.0 mg/kg/injection, schedule: Q01DX001 (ip), vehicle: saline 96 % of control | endpoint: mean survival time, dose: 100.0 mg/kg/injection, schedule: Q01DX001 (ip), vehicle: saline 98 % of control | endpoint: mean survival time, dose: 200.0 mg/kg/injection, schedule: Q01DX001 (ip), vehicle: saline 96 % of control | endpoint: mean survival time, dose: 400.0 mg/kg/injection, schedule: Q01DX001 (ip), vehicle: saline 90 % of control

COc1ccc2c(c1)CCC1C2CCC2(C)C1CCC21CCNP(=O)(N(CCCl)CCCl)O1 (stereo not given)
inactive: [10] 101 % of control | [13] 103 % of control | [14] 92 % of control

— PubChem BioAssay AID248 (DTP/NCI, 2004)
